Data reported in PMC10025090 (iScience, 2023).

How the values were obtained:
H2-Kd [1] = target: T1, H2-Kd (Mus musculus, UniProt P01902); conditions: result in words; cited from earlier work
H2-Kd [2] = target: T1, H2-Kd; assay: In vitro pMHC binding assay; conditions: refolding with 10 μM peptide, 4°C, 72 hours; ELISA; result in words

In vitro binding affinity to H2-Kd (H2-Kd [2]): significantly high
Sequence: YIRPFETKVK
In silico-predicted MHC binding (H2-Kd [1]): poor in silico-predicted MHC binder
